One series deals with T1, Alpha-glucosidase (Saccharomyces cerevisiae, UniProt P53341).
T1 construct: purchased 5003-1KU Type I
Nature of the series: biochemical. The note with it: for inhibition at 500 µM: pH 6.8, read-out: Inhibition (%) at 0.5 mM; for IC50: pH 6.8, 30 min incubation. The protocol:
The alpha-glucosidase inhibitory assay was performed by adopting the method of Pierre et al., with minor modifications. Alpha-glucosidase (Cat No. 5003-1KU Type I) belonging to Saccharomyces cerevisiae was selected for this protocol because its structure and function were similar to yeast and mammalian enzymes. In test tubes, 10 μL of test compound (0.5 mM), 70 μL of saline phosphate buffer (50 mM) to adjust pH at 6.8, and 10 μL of α-glucosidase enzyme (0.0234 units) were added to prepare […] assay mixture. A quantity of 10 μL p-nitrophenyl-α-D-glucopyranoside (0.5 mM, N1377 from Sigma, Burlington, MA, USA) was added to initiate the reaction and tubes were incubated for 30 min. […] Free substrate change in absorbance was monitored at 400 nm. The alpha-glucosidase inhibitory activity was calculated as percentage inhibition by using formula:% Inhibition = [(Abs. of control − Abs. of test)/Abs. of control] × 100
IC50 values were determined using EZ-Fit enzyme kinetics software version 5.03 (Perrella Scientific Inc. Amherst, Amherst, MA, USA).

The inhibition is the drop in the measured response relative to a control, in per cent. As a reminder, the melting point is the temperature of the solid-liquid transition. A word on the IC50: it is the concentration that inhibits the measured activity by half. Low values mean greater potency in that assay, high ones weaker potency in that assay.

Each structure is given as a SMILES string.

T1 sequence (P53341 whole entry): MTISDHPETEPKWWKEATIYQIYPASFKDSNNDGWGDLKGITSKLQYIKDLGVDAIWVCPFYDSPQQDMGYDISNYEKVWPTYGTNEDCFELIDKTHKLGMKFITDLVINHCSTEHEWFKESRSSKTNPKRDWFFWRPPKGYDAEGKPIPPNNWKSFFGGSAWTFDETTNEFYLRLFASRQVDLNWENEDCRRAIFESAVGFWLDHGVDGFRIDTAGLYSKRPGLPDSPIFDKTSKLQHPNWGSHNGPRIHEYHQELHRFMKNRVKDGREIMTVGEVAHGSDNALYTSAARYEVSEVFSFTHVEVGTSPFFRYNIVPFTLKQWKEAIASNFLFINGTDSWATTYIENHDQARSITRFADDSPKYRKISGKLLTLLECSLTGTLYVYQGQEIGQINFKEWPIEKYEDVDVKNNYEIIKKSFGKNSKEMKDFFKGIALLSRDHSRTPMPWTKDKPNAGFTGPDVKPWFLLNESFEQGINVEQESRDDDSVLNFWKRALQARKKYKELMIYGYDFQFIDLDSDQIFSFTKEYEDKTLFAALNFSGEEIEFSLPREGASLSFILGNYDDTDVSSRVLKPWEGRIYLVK

With `CCCNC(=O)CCCn1nnc2ccccc2c1=O` [14a, N-propyl-4-(4-Oxobenzo[1,2,3]triazin-3(4H)-yl)butanamide], the melting point was in the range of 127 to 128 °C. In addition, the inhibition at 500 µM on Alpha-glucosidase stood at 39.13 ± 0.19%.

Regarding `CCCCNC(=O)CCCn1nnc2ccccc2c1=O` [14b, N-Butyl-4-(4-oxobenzo[1,2,3]triazin-3(4H)-yl)butanamide], the melting point lay within 123 to 124 °C. For the same compound, at Alpha-glucosidase, the IC50 worked out at 243.41 ± 0.18 µM and the inhibition at 500 µM was determined as 67.53 ± 0.14%.

As for `CCCCCNC(=O)CCCn1nnc2ccccc2c1=O` [14c, N-pentyl-4-(4-Oxobenzo[1,2,3]triazin-3(4H)-yl)butanamide], the melting point lay in the range of 106 to 107 °C. The inhibition at 500 µM on Alpha-glucosidase was determined as 42.34 ± 0.25%.

The compound `CCCCCCNC(=O)CCCn1nnc2ccccc2c1=O` [14d, N-Hexyl-4-(4-oxobenzo[1,2,3]triazin-3(4H)-yl)butanamide] gave a melting point of 102 to 103 °C. Also, at Alpha-glucosidase, the IC50 is 335.04 ± 0.07 µM and the inhibition at 500 µM was determined as 66.2 ± 0.11%.

The compound `CCCCCCCNC(=O)CCCn1nnc2ccccc2c1=O` [14e, N-Heptyl-4-(4-oxobenzo[1,2,3]triazin-3(4H)-yl)butanamide] had a melting point of 100 to 101 °C. Moreover, at Alpha-glucosidase, the inhibition at 500 µM was determined as 40.23 ± 0.21%.

Take `CCCCCCCCNC(=O)CCCn1nnc2ccccc2c1=O` [14f, N-Octyl-4-(4-oxobenzo[1,2,3]triazin-3(4H)-yl)butanamide]: the melting point was 95 to 96 °C. Besides, the inhibition at 500 µM at Alpha-glucosidase was determined as 30.57 ± 0.16%.

Compound `Cc1cc(C)cc(NC(=O)CCCn2nnc3ccccc3c2=O)c1` [14g, N-(3,5-Dimethylphenyl)-4-(4-oxobenzo[1,2,3]triazin-3(4H)-yl)butanamide] returned a melting point of 110 to 111 °C. Further, on Alpha-glucosidase, 196.52 ± 0.08 µM corresponded to half-maximal inhibition (IC50) and the inhibition at 500 µM was found to be 78.32 ± 0.18%.

On to `O=C(CCCn1nnc2ccccc2c1=O)Nc1ccc(Br)cc1` [14h, N-(4-Bromophenyl)-4-(4-oxobenzo[1,2,3]triazin-3(4H)-yl)butanamide], for which the melting point lay in the range of 115 to 116 °C. At Alpha-glucosidase, half-maximal inhibition (IC50) was put at 238.15 ± 0.15 µM and the inhibition at 500 µM amounted to 74.25 ± 0.27%.

The compound `O=C(CCCn1nnc2ccccc2c1=O)Nc1ccc(Cl)cc1` [14i, N-(4-Chlorophenyl)-4-(4-oxobenzo[1,2,3]triazin-3(4H)-yl)butanamide] displayed a melting point of 144 to 145 °C. Moreover, on Alpha-glucosidase, the IC50 is 163.29 ± 0.13 µM and the inhibition at 500 µM amounted to 82.77 ± 0.2%.

`O=C(CCCn1nnc2ccccc2c1=O)Nc1cccc(Cl)c1` [14j, N-(3-Chlorophenyl)-4-(4-oxobenzo[1,2,3]triazin-3(4H)-yl)butanamide] showed a melting point of 209 to 210 °C. At Alpha-glucosidase, the IC50 was 52.01 ± 0.07 µM and the inhibition at 500 µM was found to be 89.35 ± 0.21%.

`Cc1ccc(NC(=O)CCCn2nnc3ccccc3c2=O)cc1` [14k, N-(4-methylphenyl)-4-(4-Oxobenzo[1,2,3]triazin-3(4H)-yl)butanamide] had a melting point of 175 to 176 °C. At Alpha-glucosidase, the IC50 came out at 27.13 ± 0.12 µM and the inhibition at 500 µM worked out at 94.18 ± 0.23%.

Take `Cc1cccc(NC(=O)CCCn2nnc3ccccc3c2=O)c1` [14l, N-(3-methylphenyl)-4-(4-Oxobenzo[1,2,3]triazin-3(4H)-yl)butanamide]: the melting point lay in the range of 105 to 106 °C. For the same compound, on Alpha-glucosidase, it took 32.14 ± 0.11 µM to reach half-maximal inhibition (IC50) and the inhibition at 500 µM came out at 92.63 ± 0.12%.

`COc1ccccc1NC(=O)CCCn1nnc2ccccc2c1=O` [14m, N-(2-Methoxyphenyl)-4-(4-oxobenzo[1,2,3]triazin-3(4H)-yl)butanamide] registered a melting point of 139 to 140 °C. For the same compound, on Alpha-glucosidase, the half-maximal inhibitory concentration (IC50) is 121.3 ± 0.15 µM and the inhibition at 500 µM amounted to 84.31 ± 0.18%.

With `COc1ccc(NC(=O)CCCn2nnc3ccccc3c2=O)cc1` [14n, N-(4-Methoxyphenyl)-4-(4-oxobenzo[1,2,3]triazin-3(4H)-yl)butanamide], the melting point was 147 to 148 °C. In addition, on Alpha-glucosidase, the IC50 was 75.37 ± 0.14 µM and the inhibition at 500 µM was determined as 87.46 ± 0.15%.

The values are drawn from publication PMC10535199, “A Combined Experimental and Computational Study of Novel Benzotriazinone Carboxamides as Alpha-Glucosidase Inhibitors” (Molecules, 2023).
